Molecular target: T1, MCR-1 (Homo sapiens, UniProt Q01726)
T1 construct: expressed in transfected cells; host or cells: HEK 293
Test: Melanocortin receptor binding assay, competition with 125I-HP 467, HEK 293 cells expressing hMCR-1
Conditions: for % Disp. MC-1 10 μM: displacement of 125I-HP 467 at 10 μM isoquinoline compound; for % Disp. of 125I-HP 467 (first of duplicate) / % Disp. of 125I-HP 467 (second of duplicate): 10 μM isoquinoline compound; for % Disp. of 125I-HP 467 (first of duplicate): HEK 293 cells expressing MCR-1, duplicate 1; for % Disp. of 125I-HP 467 (second of duplicate): HEK 293 cells expressing MCR-1, duplicate 2
How it was run: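 Test compounds compete on intact HEK 293 cells carrying hMCR-1 (2×10^4 per tube) or hMCR-4 (4×10^3 per tube), suspended in PBS, 10% calf serum, 1 mM CaCl2.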

T1 sequence (Q01726 whole entry): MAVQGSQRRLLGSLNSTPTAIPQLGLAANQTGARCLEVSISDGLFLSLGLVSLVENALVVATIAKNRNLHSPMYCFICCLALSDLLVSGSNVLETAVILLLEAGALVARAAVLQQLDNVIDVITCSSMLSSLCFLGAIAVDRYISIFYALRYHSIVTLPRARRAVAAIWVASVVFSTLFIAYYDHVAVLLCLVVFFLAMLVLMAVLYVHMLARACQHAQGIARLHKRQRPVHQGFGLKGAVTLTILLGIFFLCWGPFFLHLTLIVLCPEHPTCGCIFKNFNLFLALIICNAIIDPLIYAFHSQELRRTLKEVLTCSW

CNC(CN)CN1Cc2ccccc2C(CNC2CCCCC2)C1c1cnc2ccccc2c1 (centres unmarked) [TRG 2405-142]
% Disp. MC-1 10 μM (first of duplicate): 48.5% | % Disp. MC-1 10 μM (second of duplicate): 45.1%

CNC(CN)CN1Cc2ccccc2C(CNC2CCCCC2)C1c1ccc(OCCCN(C)C)cc1 (centres unmarked) [TRG 2405-144]
% Disp. MC-1 10 μM (first of duplicate): 29.6% | % Disp. MC-1 10 μM (second of duplicate): 41.7%

CNC(CN)CN1Cc2ccccc2C(CNC2CCCCC2)C1c1ccc(N(C)C)cc1 (centres unmarked) [TRG 2405-145]
% Disp. MC-1 10 μM (first of duplicate): 41.2% | % Disp. MC-1 10 μM (second of duplicate): 49.7%

CNC(CN)CN1Cc2ccccc2C(CNC2CCCCC2)C1c1ccc(SC)cc1 (centres unmarked) [TRG 2405-147]
% Disp. MC-1 10 μM (first of duplicate): 31.6% | % Disp. MC-1 10 μM (second of duplicate): 38.9%

CCNc1ccc(C2C(CNC3CCCCC3)c3ccccc3CN2CC(CN)NC)cc1 (centres unmarked) [TRG 2405-149]
% Disp. MC-1 10 μM (first of duplicate): 30.1% | % Disp. MC-1 10 μM (second of duplicate): 52.3%

CNC(CN)CN1Cc2ccccc2C(CNC2CCCCC2)C1c1ccc(OC)cc1 (centres unmarked) [TRG 2405-150]
% Disp. MC-1 10 μM (first of duplicate): 37.6% | % Disp. MC-1 10 μM (second of duplicate): 54.7%

CNC(CN)CN1Cc2ccccc2C(CNC2CCCCC2)C1c1ccc(-c2ccccc2)cc1 (centres unmarked) [TRG 2405-151]
% Disp. MC-1 10 μM (first of duplicate): 61.5% | % Disp. MC-1 10 μM (second of duplicate): 57.6%

CNC(CN)CN1Cc2ccccc2C(CNC2CCCCC2)C1c1ccc(CN)cc1 (centres unmarked) [TRG 2405-154]
% Disp. MC-1 10 μM (first of duplicate): 43.1% | % Disp. MC-1 10 μM (second of duplicate): 54.8%

CNC(CN)CN1Cc2ccccc2C(CNC2CCCCC2)C1c1ccc(F)cc1 (centres unmarked) [TRG 2405-155]
% Disp. MC-1 10 μM (first of duplicate): 52.3% | % Disp. MC-1 10 μM (second of duplicate): 55.6%

CNC(CN)CN1Cc2ccccc2C(CNC2CCCCC2)C1c1ccc(C(C)C)cc1 (centres unmarked) [TRG 2405-157]
% Disp. MC-1 10 μM (first of duplicate): 56.4% | % Disp. MC-1 10 μM (second of duplicate): 56.1%

CNC(CN)CN1Cc2ccccc2C(CNC2CCCCC2)C1c1ccc(OC)c2ccccc12 (centres unmarked) [TRG 2405-158]
% Disp. MC-1 10 μM (first of duplicate): 45.6% | % Disp. MC-1 10 μM (second of duplicate): 45.8%

CNC(CN)CN1Cc2ccccc2C(CNC2CCCCC2)C1c1ccc(C)cc1 (centres unmarked) [TRG 2405-159]
% Disp. MC-1 10 μM (first of duplicate): 51% | % Disp. MC-1 10 μM (second of duplicate): 53.5%

CNC(CN)CN1Cc2ccccc2C(CNC2CCCCC2)C1c1ccc(Oc2ccccc2)cc1 (centres unmarked) [TRG 2405-162]
% Disp. MC-1 10 μM (first of duplicate): 71% | % Disp. MC-1 10 μM (second of duplicate): 59.6%

CCCOc1ccc(C2C(CNC3CCCCC3)c3ccccc3CN2CC(CN)NC)cc1 (centres unmarked) [TRG 2405-163]
% Disp. MC-1 10 μM (first of duplicate): 62.4% | % Disp. MC-1 10 μM (second of duplicate): 58.1%

CNC(CN)CN1Cc2ccccc2C(CNC2CCCCC2)C1c1ccncc1 (centres unmarked) [TRG 2405-164]
% Disp. MC-1 10 μM (first of duplicate): 24.7% | % Disp. MC-1 10 μM (second of duplicate): 33.5%

CNC(CN)CN1Cc2ccccc2C(CNC2CCCCC2)C1c1ccnc2ccccc12 (centres unmarked) [TRG 2405-165]
% Disp. MC-1 10 μM (first of duplicate): 37.3% | % Disp. MC-1 10 μM (second of duplicate): 34.6%

CNC(CN)CN1Cc2ccccc2C(CNC2CCCCC2)C1c1ccc(C)s1 (centres unmarked) [TRG 2405-168]
% Disp. MC-1 10 μM (first of duplicate): 44.9% | % Disp. MC-1 10 μM (second of duplicate): 24.1%

CNC(CN)CN1Cc2ccccc2C(CNC2CCCCC2)C1c1ccc(C)o1 (centres unmarked) [TRG 2405-169]
% Disp. MC-1 10 μM (first of duplicate): 62.2% | % Disp. MC-1 10 μM (second of duplicate): 51.5%

CNC(CN)CN1Cc2ccccc2C(CNC2CCCCC2)C1c1cccc(C)n1 (centres unmarked) [TRG 2405-171]
% Disp. MC-1 10 μM (first of duplicate): 63.1% | % Disp. MC-1 10 μM (second of duplicate): 49.7%

CNC(CN)CN1Cc2ccccc2C(CNC2CCCCC2)C1c1ccc2cccc(O)c2n1 (centres unmarked) [TRG 2405-172]
% Disp. of 125I-HP 467 (first of duplicate): 59.4% | % Disp. of 125I-HP 467 (second of duplicate): 43.9%

CCn1c2ccccc2c2cc(C3C(CNC4CCCCC4)c4ccccc4CN3CC(CN)NC)ccc21 (centres unmarked) [TRG 2405-173]
% Disp. of 125I-HP 467 (first of duplicate): 67% | % Disp. of 125I-HP 467 (second of duplicate): 59.3%

CNC(CN)CN1Cc2ccccc2C(CNC2CCCCC2)C1c1ccc[nH]1 (centres unmarked) [TRG 2405-175]
% Disp. of 125I-HP 467 (first of duplicate): 68.5% | % Disp. of 125I-HP 467 (second of duplicate): 68.8%

CNC(CN)CN1Cc2ccccc2C(CNC2CCCCC2)C1c1ccc(S(C)(=O)=O)cc1 (centres unmarked) [TRG 2405-177]
% Disp. of 125I-HP 467 (first of duplicate): 39% | % Disp. of 125I-HP 467 (second of duplicate): 30.7%

CNC(CN)CN1Cc2ccccc2C(CNC2CCCCC2)C1c1ccc(OC)c(S(=O)(=O)O)c1 (centres unmarked) [TRG 2405-178]
% Disp. of 125I-HP 467 (first of duplicate): 25% | % Disp. of 125I-HP 467 (second of duplicate): 22.1%

CNC(CN)CN1Cc2ccccc2C(CNC2CCCCC2)C1c1ccc(Br)o1 (centres unmarked) [TRG 2405-179]
% Disp. of 125I-HP 467 (first of duplicate): 61.1% | % Disp. of 125I-HP 467 (second of duplicate): 56.8%

CNC(CN)CN1Cc2ccccc2C(CNC2CCCCC2)C1c1nccs1 (centres unmarked) [TRG 2405-180]
% Disp. of 125I-HP 467 (first of duplicate): 72% | % Disp. of 125I-HP 467 (second of duplicate): 64.6%

CNC(CN)CCCCN1Cc2ccccc2C(CNC2CCCCC2)C1c1ccccc1 (centres unmarked) [TRG 2405-181]
% Disp. of 125I-HP 467 (first of duplicate): 57.3% | % Disp. of 125I-HP 467 (second of duplicate): 64.4%

CNC(CN)CCCCN1Cc2ccccc2C(CNC2CCCCC2)C1c1cccn1C (centres unmarked) [TRG 2405-184]
% Disp. of 125I-HP 467 (first of duplicate): 55.8% | % Disp. of 125I-HP 467 (second of duplicate): 46%

CN[C@H](CN)CCCCN1Cc2ccccc2C(CNC2CCCCC2)C1c1cccc2ccccc12 (some centres unmarked) [TRG 2405-185]
% Disp. of 125I-HP 467 (first of duplicate): 68.1% | % Disp. of 125I-HP 467 (second of duplicate): 60.4%

CNC(CN)CCCCN1Cc2ccccc2C(CNC2CCCCC2)C1c1ccc(F)c(F)c1F (centres unmarked) [TRG 2405-186]
% Disp. of 125I-HP 467 (first of duplicate): 62.7% | % Disp. of 125I-HP 467 (second of duplicate): 52.7%

CNC(CN)CCCCN1Cc2ccccc2C(CNC2CCCCC2)C1c1cccc2c1OCO2 (centres unmarked) [TRG 2405-188]
% Disp. of 125I-HP 467 (first of duplicate): 66.9% | % Disp. of 125I-HP 467 (second of duplicate): 60.1%

CNC(CN)CCCCN1Cc2ccccc2C(CNC2CCCCC2)C1c1cccc(F)c1F (centres unmarked) [TRG 2405-189]
% Disp. of 125I-HP 467 (first of duplicate): 45% | % Disp. of 125I-HP 467 (second of duplicate): 54.8%

CNC(CN)CCCCN1Cc2ccccc2C(CNC2CCCCC2)C1c1c(F)cccc1F (centres unmarked) [TRG 2405-191]
% Disp. of 125I-HP 467 (first of duplicate): 41.2% | % Disp. of 125I-HP 467 (second of duplicate): 47.3%

CNC(CN)CCCCN1Cc2ccccc2C(CNC2CCCCC2)C1c1ccccc1Br (centres unmarked) [TRG 2405-192]
% Disp. of 125I-HP 467 (first of duplicate): 73.8% | % Disp. of 125I-HP 467 (second of duplicate): 50.9%

CNC(CN)CCCCN1Cc2ccccc2C(CNC2CCCCC2)C1c1c(F)cccc1Cl (centres unmarked) [TRG 2405-194]
% Disp. of 125I-HP 467 (first of duplicate): 50.7% | % Disp. of 125I-HP 467 (second of duplicate): 51.4%

CNC(CN)CCCCN1Cc2ccccc2C(CNC2CCCCC2)C1c1ccccc1CN (centres unmarked) [TRG 2405-195]
% Disp. of 125I-HP 467 (first of duplicate): 44.7% | % Disp. of 125I-HP 467 (second of duplicate): 35.7%

CNC(CN)CCCCN1Cc2ccccc2C(CNC2CCCCC2)C1c1ccccc1F (centres unmarked) [TRG 2405-196]
% Disp. of 125I-HP 467 (first of duplicate): 69.1% | % Disp. of 125I-HP 467 (second of duplicate): 64.6%

From US6608082B1, “Treatment of erectile dysfunction using isoquinoline compound melanocortin receptor ligands” (Lion Bioscience AG, priority 1998, dated 2003)
